Laboratory results reported in patent US9334279B2, “Hepatitis C virus inhibitors” (BRISTOL-MYERS SQUIBB COMPANY, priority 2012, dated 2016).

Assays:
[1] = system: HCV GT1a(H77) replicon; assay: HCV replicon luciferase reporter assay, genotype 1a; format: cell-based, HCV genotype 1a; settings: Hepatitis C virus, 72 h, HUH-7 cells, Renilla luciferase, 3 days incubation, read-out: LE_1a (EC50, range)
In short: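 Huh-7 cells stably carried a GT1a(H77) Renilla luciferase replicon with NS3 P1496L and NS5A S2204I adaptive mutations. Luminescence was read after 2 h with 7.5 μM EnduRen, and EC50 came from a four-parameter logistic fit; CC50 came from multiplexed Cell Titer-Blue (8 h).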

[2] = system: HCV GT1b(Con1) replicon; assay: HCV replicon luciferase reporter assay, genotype 1b; format: cell-based, HCV genotype 1b; settings: Hepatitis C virus, 72 h, HUH-7 cells, Renilla luciferase, 3 days incubation, read-out: LE_1b (EC50, range)
In short: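 HUH-7 cells stably carrying a Con1 GT1b replicon with Renilla luciferase and Ser1179Ile adaptive mutation; 3.0×10^3 cells/well, DMEM 4% FCS, 0.5% DMSO, twenty-point 3-fold titration, 3 days 37 °C. Luminescence 2 h after 7.5 μM EnduRen; EC50 by four-parameter logistic fit. CC50 from multiplexed Cell Titer-Blue fluorescence (8 h).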

SMILES	EC50 [1]	EC50 [2]
C[C@H]1CC/C=C\[C@@H]2C[C@@]2(C(=O)NS(=O)(=O)C2(C)CC2)NC(=O)[C@@H]2C[C@@H](Oc3cc(-c4nccs4)ccn3)CN2C(=O)[C@@H](NC(=O)OC(C)(C)C(F)(F)F)[C@H](C)C1 [Compound 1032, 1,1,1-trifluoro-2-methylpropan-2-yl ((2R,6S,7R,9S,13aS,14aR,16aS,Z)-7,9-dimethyl-14a-(((1-methylcyclopropyl)sulfonyl)carbamoyl)-5,16-dioxo-2-((4-(thiazol-2-yl)pyridin-2-yl)oxy)-1,2,3,5,6,7,8,9,10,11,13a,14,14a,15,16,16a-hexadecahydrocyclopropa[e]pyrrolo[1,2-a][1,4]diazacyclopentadecin-6-yl)carbamate]	5.01 to 35 nM	5.01 to 35 nM
CC[C@@H]1O[C@H](C)CC/C=C\[C@@H]2C[C@@]2(C(=O)NS(=O)(=O)C2(C)CC2)NC(=O)[C@@H]2C[C@@H](Oc3cc(-c4ccc(OC(C)C)cc4)nc(-c4cncs4)c3)CN2C(=O)[C@H]1NC(=O)OC(C)(C)C(F)(F)F [Compound 1033, 1,1,1-trifluoro-2-methylpropan-2-yl ((2R,6S,7S,9R,13aS,14aR,16aS,Z)-7-ethyl-2-((2-(4-isopropoxyphenyl)-6-(thiazol-5-yl)pyridin-4-yl)oxy)-9-methyl-14a-(((1-methylcyclopropyl)sulfonyl)carbamoyl)-5,16-dioxo-2,3,5,6,7,9,10,11,13a,14,14a,15,16,16a-tetradecahydro-1H-cyclopropa[i]pyrrolo[1,2-e][1,5,8]oxadiazacyclopentadecin-6-yl)carbamate]	1.01 to 5 nM	0.51 to 1 nM
CC[C@@H]1O[C@H](C)CC/C=C\[C@@H]2C[C@@]2(C(=O)NS(=O)(=O)C2(C)CC2)NC(=O)[C@@H]2C[C@@H](Oc3cc(-c4ccc(OC(C)C)cc4)nc(-c4cncs4)c3)CN2C(=O)[C@H]1NC(=O)OC1(C(F)(F)F)CCCOC1 (stereo partly drawn) [Compound 1034, 3-(trifluoromethyl)tetrahydro-2H-pyran-3-yl ((2R,6S,7S,9R,13aS,14aR,16aS,Z)-7-ethyl-2-((2-(4-isopropoxyphenyl)-6-(thiazol-5-yl)pyridin-4-yl)oxy)-9-methyl-14a-(((1-methylcyclopropyl)sulfonyl)carbamoyl)-5,16-dioxo-2,3,5,6,7,9,10,11,13a,14,14a,15,16,16a-tetradecahydro-1H-cyclopropa[i]pyrrolo[1,2-e][1,5,8]oxadiazacyclopentadecin-6-yl)carbamate]	1.01 to 5 nM	0.51 to 1 nM
CC[C@@H]1O[C@H](C)CC/C=C\[C@@H]2C[C@@]2(C(=O)NS(=O)(=O)C2(C)CC2)NC(=O)[C@@H]2C[C@@H](Oc3cc(-c4ccc(OC(C)C)cc4)nc(-c4nccs4)c3)CN2C(=O)[C@H]1NC(=O)OC1(C(F)(F)F)CCCOC1 (stereo partly drawn) [Compound 1035, 3-(trifluoromethyl)tetrahydro-2H-pyran-3-yl ((2R,6S,7S,9R,13aS,14aR,16aS,Z)-7-ethyl-2-((2-(4-isopropoxyphenyl)-6-(thiazol-2-yl)pyridin-4-yl)oxy)-9-methyl-14a-(((1-methylcyclopropyl)sulfonyl)carbamoyl)-5,16-dioxo-2,3,5,6,7,9,10,11,13a,14,14a,15,16,16a-tetradecahydro-1H-cyclopropa[i]pyrrolo[1,2-e][1,5,8]oxadiazacyclopentadecin-6-yl)carbamate]	0.51 to 1 nM	0.51 to 1 nM
CC[C@@H]1O[C@H](C)CC/C=C\[C@@H]2C[C@@]2(C(=O)NS(=O)(=O)C2(C)CC2)NC(=O)[C@@H]2C[C@@H](Oc3cc(-c4ccc(OC(C)C)cc4)nc(-c4cscn4)c3)CN2C(=O)[C@H]1NC(=O)OC1(C(F)(F)F)CCCOC1 (stereo partly drawn) [Compound 1036, 3-(trifluoromethyl)tetrahydro-2H-pyran-3-yl ((2R,6S,7S,9R,13aS,14aR,16aS,Z)-7-ethyl-2-((2-(4-isopropoxyphenyl)-6-(thiazol-4-yl)pyridin-4-yl)oxy)-9-methyl-14a-(((1-methylcyclopropyl)sulfonyl)carbamoyl)-5,16-dioxo-2,3,5,6,7,9,10,11,13a,14,14a,15,16,16a-tetradecahydro-1H-cyclopropa[i]pyrrolo[1,2-e][1,5,8]oxadiazacyclopentadecin-6-yl)carbamate]	0.51 to 1 nM	0.1 to 0.5 nM
CC[C@@H]1O[C@H](C)CC/C=C\[C@@H]2C[C@@]2(C(=O)NS(=O)(=O)C2(C)CC2)NC(=O)[C@@H]2C[C@@H](Oc3cc(-c4ccc(OC(C)C)cc4)nc(-c4ccccn4)c3)CN2C(=O)[C@H]1NC(=O)OC1(C(F)(F)F)CCCOC1 (stereo partly drawn) [Compound 1037, 3-(trifluoromethyl)tetrahydro-2H-pyran-3-yl ((2R,6S,7S,9R,13aS,14aR,16aS,Z)-7-ethyl-2-((6-(4-isopropoxyphenyl)-[2,2′-bipyridin]-4-yl)oxy)-9-methyl-14a-(((1-methylcyclopropyl)sulfonyl)carbamoyl)-5,16-dioxo-2,3,5,6,7,9,10,11,13a,14,14a,15,16,16a-tetradecahydro-1H-cyclopropa[i]pyrrolo[1,2-e][1,5,8]oxadiazacyclopentadecin-6-yl)carbamate]	1.01 to 5 nM	0.1 to 0.5 nM
CC[C@@H]1OCCC/C=C\[C@@H]2C[C@@]2(C(=O)NS(=O)(=O)C2(C)CC2)NC(=O)[C@@H]2C[C@@H](Oc3cc(-c4ccc(OC(C)C)cc4)nc(-c4cncs4)c3)CN2C(=O)[C@H]1NC(=O)OC1(C(F)(F)F)CCCOC1 (stereo partly drawn) [Compound 1038, 3-(trifluoromethyl)tetrahydro-2H-pyran-3-yl ((2R,6S,7S,13aS,14aR,16aS,Z)-7-ethyl-2-((2-(4-isopropoxyphenyl)-6-(thiazol-5-yl)pyridin-4-yl)oxy)-14a-(((1-methylcyclopropyl)sulfonyl)carbamoyl)-5,16-dioxo-2,3,5,6,7,9,10,11,13a,14,14a,15,16,16a-tetradecahydro-1H-cyclopropa[i]pyrrolo[1,2-e][1,5,8]oxadiazacyclopentadecin-6-yl)carbamate]	1.01 to 5 nM	0.51 to 1 nM
CC[C@@H]1O[C@H](C)CC/C=C\[C@@H]2C[C@@]2(C(=O)NS(=O)(=O)C2(C)CC2)NC(=O)[C@@H]2C[C@@H](Oc3cc(-c4ccc(C(F)(F)F)cc4)nc(-c4nccs4)c3)CN2C(=O)[C@H]1NC(=O)OC(C)(C)C(F)(F)F [Compound 1039, 1,1,1-trifluoro-2-methylpropan-2-yl ((2R,6S,7S,9R,13aS,14aR,16aS,Z)-7-ethyl-9-methyl-14a-(((1-methylcyclopropyl)sulfonyl)carbamoyl)-5,16-dioxo-2-((2-(thiazol-2-yl)-6-(4-(trifluoromethyl)phenyl)pyridin-4-yl)oxy)-2,3,5,6,7,9,10,11,13a,14,14a,15,16,16a-tetradecahydro-1H-cyclopropa[i]pyrrolo[1,2-e][1,5,8]oxadiazacyclopentadecin-6-yl)carbamate]	1.01 to 5 nM	1.01 to 5 nM
CC[C@@H]1O[C@H](C)CC/C=C\[C@@H]2C[C@@]2(C(=O)NS(=O)(=O)C2(C)CC2)NC(=O)[C@@H]2C[C@@H](Oc3cc(-c4ccc(C(F)(F)F)cc4)nc(-c4nccs4)c3)CN2C(=O)[C@H]1NC(=O)OC1(C(F)(F)F)CCCOC1 (stereo partly drawn) [Compound 1040, 3-(trifluoromethyl)tetrahydro-2H-pyran-3-yl ((2R,6S,7S,9R,13aS,14aR,16aS,Z)-7-ethyl-9-methyl-14a-(((1-methylcyclopropyl)sulfonyl)carbamoyl)-5,16-dioxo-2-((2-(thiazol-2-yl)-6-(4-(trifluoromethyl)phenyl)pyridin-4-yl)oxy)-2,3,5,6,7,9,10,11,13a,14,14a,15,16,16a-tetradecahydro-1H-cyclopropa[i]pyrrolo[1,2-e][1,5,8]oxadiazacyclopentadecin-6-yl)carbamate]	0.51 to 1 nM	0.1 to 0.5 nM
CC(C)Oc1ccc(-c2cc(O[C@@H]3C[C@H]4C(=O)N[C@]5(C(=O)NS(=O)(=O)C6(C)CC6)C[C@H]5/C=C\CC[C@@H](C)C[C@@H](C)[C@H](NC(=O)OC5(C(F)(F)F)CCCOC5)C(=O)N4C3)cc(-c3nccs3)n2)cc1 (stereo partly drawn) [Compound 1041, 3-(trifluoromethyl)tetrahydro-2H-pyran-3-yl ((2R,6S,7R,9R,13aS,14aR,16aS,Z)-2-((2-(4-isopropoxyphenyl)-6-(thiazol-2-yl)pyridin-4-yl)oxy)-7,9-dimethyl-14a-(((1-methylcyclopropyl)sulfonyl)carbamoyl)-5,16-dioxo-1,2,3,5,6,7,8,9,10,11,13a,14,14a,15,16,16a-hexadecahydrocyclopropa[e]pyrrolo[1,2-a][1,4]diazacyclopentadecin-6-yl)carbamate]	0.51 to 1 nM	0.51 to 1 nM
Cc1cnc(-c2cc(O[C@@H]3C[C@H]4C(=O)N[C@]5(C(=O)NS(=O)(=O)C6(C)CC6)C[C@H]5/C=C\CC[C@@H](C)C[C@@H](C)[C@H](NC(=O)OC(C)(C)C(F)(F)F)C(=O)N4C3)ccn2)s1 [Compound 1043, 1,1,1-trifluoro-2-methylpropan-2-yl ((2R,6S,7R,9R,13aS,14aR,16aS,Z)-7,9-dimethyl-14a-(((1-methylcyclopropyl)sulfonyl)carbamoyl)-2-((2-(5-methylthiazol-2-yl)pyridin-4-yl)oxy)-5,16-dioxo-1,2,3,5,6,7,8,9,10,11,13a,14,14a,15,16,16a-hexadecahydrocyclopropa[e]pyrrolo[1,2-a][1,4]diazacyclopentadecin-6-yl)carbamate]	0.51 to 1 nM	0.1 to 0.5 nM
